Data: PMC11478212, “Antitumoral and Antiproliferative Potential of Synthetic Derivatives of Scorpion Peptide IsCT1 in an Oral Cavity Squamous Carcinoma Model” (Molecules, 2024)
Read-outs that look alike come from different tables or passages of the source. Where no end group is shown, it is not given here.

Tests used:
[1] = Resistance to degradation in 25% fetal bovine serum; type: in vitro ADME; settings: 25% fetal bovine serum in water, 37 °C, HPLC peak area vs t = 0 h, triplicate; for remaining at 0.5 h: read-out: peptide remaining intact after 30 min; for remaining at 6 h: read-out: peptide remaining intact after 6 h
Method: Figure 1 (a) Helical wheel projections of the IsCT1, AFPK-IsCT1, KKK-IsCT1, and IsCT-P peptides were generated using the Heliquest server (https://heliquest.ipmc.cnrs.fr/, accessed on 15 July 2024). In these projections, yellow, gray, and green circles represent hydrophobic amino acids, while blue and pink circles denote hydrophilic amino acids. (b) Resistance to degradation assays for all peptides were performed over 6 h in a solution containing 25% fetal bovine serum (FBS). These experiments were conducted in triplicate and aliquots were collected for analysis at 0, 0.5, 1, 2, 4, and 6 h of incubation. The aliquots were subsequently analyzed using high-performance liquid chromatography (HPLC) after each incubation period. The degradation kinetics of the peptides were determined by comparing the integrated peak area associated with the peptide at the start of the experiment (t = 0 h) with the integrated peak area at subsequent time points (t = 0.5, 1, 2, 4, 6 h). (c) The hemolytic activity of synthetic peptides analogous to IsCT1 was assessed on human erythrocytes within a concentration range of 0.13–128 μmol L^−1 in phosphate-buffered saline (PBS) (n = 3). A 1% solution of sodium dodecyl sulfate (SDS) in PBS served as a positive control, while PBS alone was used as a negative control. (d) A table summarizing the sequences, molecular weights, and physicochemical properties of the IsCT1, AFPK-IsCT1, and KKK-IsCT1 peptides. […]
Stability assays were conducted using GIBCO (Waltham, MA, USA) fetal bovine serum diluted to 25% in water, as described by Torres et al.. Briefly, peptide solutions were added to the serum solution and maintained at 37 °C. The experiments were carried out in triplicate and samples were taken at 0, 0.5, 1, 2, 4, and 6 h post incubation. The degradation kinetics were monitored using liquid chromatography and the percentage of remaining peptides was calculated by integrating the peak area of the peptide.

[2] = system: FN1 cells; assay: MTT cell viability; type: cell-based; settings: FN1 normal human fibroblasts, treatment 24 and 48 h (time of IC50 not given), absorbance 540 nm, N/IC50 = no IC50 for the tested concentrations, no toxicity
Method: (§1) Cell survival was assessed using an MTT assay. Tumor (SSC-9 and SSC-25) and normal cells (FN1 and J-774) were incubated in 96-well plates at a density of 10^5 cells/mL for 24 h. Subsequently, treatments were administered as described in Table 1 for 24 and 48 h. After the treatment period, the supernatant was aspirated and 100 μL of MTT at a concentration of 5 mg/mL (Calbiochem—Darmstadt, Germany) was added to the plate and incubated for 3 h at 37 °C with 5% CO2. Afterward, the content was removed and 200 μL of methanol was added to dissolve the formazan crystals. Absorbance was then measured at a wavelength of 540 nm using a microplate reader. The hemolysis assay was performed as previously reported.

[3] = system: J774 cells; assay: MTT cell viability; type: cell-based; settings: J774 normal macrophages, treatment 24 and 48 h (time of IC50 not given), absorbance 540 nm, N/IC50 = no IC50 for the tested concentrations, no toxicity
Method: as §1

[4] = system: SCC-25 cells; assay: MTT cell viability; type: cell-based; settings: treatment 24 and 48 h (time of IC50 not given), absorbance 540 nm, N/IC50 = no IC50 for the tested concentrations, no toxicity
Method: as §1

[5] = system: SCC-9 cells; assay: MTT cell viability; type: cell-based; settings: treatment 24 and 48 h (time of IC50 not given), absorbance 540 nm, N/IC50 = no IC50 for the tested concentrations, no toxicity
Method: as §1

[6] = system: SCC-25 tumor cells; assay: Cell cycle phase and DNA fragmentation analysis (flow cytometry); type: cell-based; settings: 24 h, IsCT-P and AC-AFPK-IsCT1 at IC50, others 100 µM
Method: (§2) Figure 3 Analysis of cell cycle phases following a 24 h treatment with synthetic analogs of IsCT1 peptides. The indicated cells were treated at the IC50 values obtained for the IsCT-P and AC-AFPK-IsCT1 peptides and at a concentration of 100 µM for the other peptides. (a) Representative histograms of cell distribution across cell cycle phases; (b) bar graph showing the correlation of the effect on cell cycle and fragmented DNA, expressed as the mean ± SD of three independent SCC-9 tumor cell experiments; (c) bar graph showing the correlation of the effect on cell cycle and fragmented DNA, expressed as the mean ± SD of three independent experiments on SCC-25 tumor cells; (d) bar graph showing the correlation of the effect on cell cycle and fragmented DNA, expressed as the mean ± SD of three independent experiments of normal FN1 cells; (e) bar graph showing the correlation of the effect on cell cycle and fragmented DNA, expressed as the mean ± SD of three independent experiments of normal J774 cells. Statistical differences were obtained using ANOVA and Tukey–Kramer multiple comparison tests. * p < 0.05, ** p < 0.01, and *** p < 0.001 denote significance. ns = not significant.
(§3) Tumor (SSC-9 and SSC-25) and normal cells (FN1 and J-774) were subjected to treatment for 24 h at the peptides’ IC50 concentrations. Treated and control cells were trypsinized and centrifuged at 1200 rpm for 5 min. The resulting pellet was resuspended in 1 mL of cold buffer, followed by the addition of 3 mL of absolute ethanol. Samples were stored at −20 °C for 24 h. The samples were then centrifuged at 1500 rpm for 10 min and resuspended in 200 μL of FACS buffer containing 0.1% Triton X-100 (Sigma-Aldrich, St. Louis, MO, USA), 50 μg/mL propidium iodide (Sigma-Aldrich), and 1 µL of RNAse (200×). This mixture was kept at room temperature and protected from light for 30 min. The samples were then transferred to cytometry tubes and analyzed using a FACScanto flow cytometer (BD) with 10,000 events, and histograms were acquired and analyzed using ModFit LT 5.0 software.

[7] = system: SCC-9 tumor cells; assay: as above; type: cell-based; settings: 24 h, 100 µM, compared to the control
Method: as §2, §3

[8] = system: SCC-25 tumor cells; assay: Mitochondrial membrane electrical potential (ΔΨm) by flow cytometry; type: cell-based; settings: 24 h, IsCT-P and AC-AFPK-IsCT1 at IC50, others 100 µM, MitoRed, mean ± SD of three independent experiments
Method: Figure 4 Analysis of mitochondrial electrical potential (ΔΨm) using flow cytometry following a 24 h treatment with synthetic analogs of IsCT1 peptides. The indicated cells were treated at the IC50 values obtained for the IsCT-P and AC-AFPK-IsCT1 peptides and at a concentration of 100 µM for the other peptides. (a) Representative histograms of cell distribution according to ΔΨm; (b) bar graph showing ΔΨm expressed as the mean ± SD of three independent experiments of SCC-9 tumor cells; (c) bar graph showing ΔΨm expressed as the mean ± SD of three independent experiments of SCC-25 tumor cells; (d) bar graph showing ΔΨm expressed as the mean ± SD of three independent experiments of normal FN1 cells; (e) bar graph showing ΔΨm expressed as the mean ± SD of three independent experiments of normal J774 cells. Statistical differences were obtained using ANOVA and Tukey–Kramer multiple comparison tests. * p < 0.05, ** p < 0.01, and *** p < 0.001 denote significance. ns = not significant.
Tumor (SSC-9 and SSC-25) and normal cells (FN1 and J-774) were subjected to treatment for a period of 24 h at the peptides’ IC50 concentrations. After treatment, the cells were trypsinized, centrifuged at 1200 rpm for 5 min, the supernatant was discarded, and the cells were resuspended in complete medium containing MitoRed™ (Sigma-Aldrich, USA) (200 nM/L). Subsequently, the samples were incubated in an incubator at 37 °C with 5% CO2 for 30 min. The tubes were then centrifuged, the supernatant was discarded, and the pellet was resuspended in 200 μL of FACS buffer. Readings were performed using a FACScanto flow cytometer (BD) with 10,000 events, and histograms were acquired and analyzed using FCS Express software 2.0.

Substance	remaining at 0.5 h ([1]; 30 min)	remaining at 6 h [1]	IC50 [2]	IC50 [3]	IC50 [4]	IC50 [5]	fragmented DNA [6]	increase in fragmented DNA [7]	decrease in ΔΨm [8]	metabolised at 0.5 h ([1]; 30 min)	time to complete degradation [1]	IC50 ([2]; read-out: IC50)
ALGKFWPKIKSLF-NH2 [AFPK-IsCT1]	50%	8%	N/IC50	N/IC50	N/IC50	N/IC50	No significant DNA fragmentation	13.6%	40.5 ± 0.4%	–	–	–
Ac-ILKKIWKGKKSLF-NH2 [AC-KKK-IsCT1]	–	–	–	N/IC50	N/IC50	N/IC50	12.4%	–	–	50%	≤ 4 h	100 µM
H-ILKKIWKGKKSLF-NH2 [KKK-IsCT1]	50%	8%	N/IC50	N/IC50	N/IC50	N/IC50	19%	–	–	–	–	–
